The source made the active and inactive calls. No cut-off for these calls is given here.
Experiments:
[1] = molecular target: T1, 5-hydroxytryptamine receptor 2A (Homo sapiens, UniProt P28223); assay: Agonist activity at human recombinant 5-HT2A receptor expressed in CHOK1 cells assessed as induction of calcium release incubated for 15 mins measured every 1.7 secs for 60 secs by calcium 4 dye-based FLIPR assay; assay type: functional, cell-based
[2] = molecular target: T1, 5-hydroxytryptamine receptor 2A; assay: Antagonist activity at human recombinant 5-HT2A receptor expressed in CHOK1 cells assessed as inhibition of serotonin-induced calcium release preincubated for 15 mins followed by 5-HT addition measured every 1.7 secs for 60 secs by calcium 4 dye-based FLIPR assay; assay type: functional, cell-based

T1 sequence (P28223 whole entry): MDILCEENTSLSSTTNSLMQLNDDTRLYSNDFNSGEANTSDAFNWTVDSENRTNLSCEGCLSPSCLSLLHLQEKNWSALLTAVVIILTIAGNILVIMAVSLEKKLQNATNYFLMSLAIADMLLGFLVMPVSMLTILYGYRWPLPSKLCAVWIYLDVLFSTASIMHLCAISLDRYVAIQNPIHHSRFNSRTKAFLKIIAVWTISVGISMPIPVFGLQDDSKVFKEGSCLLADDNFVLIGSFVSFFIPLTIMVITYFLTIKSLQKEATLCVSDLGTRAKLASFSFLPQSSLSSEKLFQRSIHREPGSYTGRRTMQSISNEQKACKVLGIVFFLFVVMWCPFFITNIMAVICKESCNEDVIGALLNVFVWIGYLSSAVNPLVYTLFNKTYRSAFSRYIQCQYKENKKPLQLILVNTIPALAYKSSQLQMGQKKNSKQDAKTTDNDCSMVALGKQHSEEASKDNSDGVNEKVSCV

COc1c(OCCOCCN=[N+]=[N-])cccc1[C@H](O)C1CCN(CCc2ccc(F)cc2)CC1
Activity [1]: inactive
IC50 [2]: 46.7 nM
inhibition [2]: Dose-dependent effect

C#CCOCCOCCOc1cccc([C@H](O)C2CCN(CCc3ccc(F)cc3)CC2)c1OC
Activity [1]: inactive
IC50 [2]: 56.6 nM
inhibition [2]: Dose-dependent effect

COc1c(OCCOCCOCCOCCOCCOc2cccc(C(=O)C3CCN(CCc4ccc(F)cc4)CC3)c2OC)cccc1C(=O)C1CCN(CCc2ccc(F)cc2)CC1
IC50 [2]: 29.5 nM

COc1c(OCCOCCOCCOCCOCCOCCOc2cccc(C(=O)C3CCN(CCc4ccc(F)cc4)CC3)c2OC)cccc1C(=O)C1CCN(CCc2ccc(F)cc2)CC1
IC50 [2]: 39.8 nM

COc1c(OCCOCCOc2cn(CCOCCOc3cccc([C@H](O)C4CCN(CCc5ccc(F)cc5)CC4)c3OC)nn2)cccc1[C@H](O)C1CCN(CCc2ccc(F)cc2)CC1
Activity [1]: inactive
IC50 [2]: 36.5 nM
inhibition [2]: Dose-dependent effect

From ChEMBL document CHEMBL4219158 (Bioorg Med Chem Lett, 2018)
